One compound from ChEMBL document CHEMBL3232855, “The discovery of N-((2H-tetrazol-5-yl)methyl)-4-((R)-1-((5r,8R)-8-(tert-butyl)-3-(3,5-dichlorophenyl)-2-oxo-1,4-diazaspiro[4.5]dec-3-en-1-yl)-4,4-dimethylpentyl)benzamide (SCH 900822): a potent and selective glucagon receptor antagonist” (J Med Chem, 2014) can be followed below.

Broadly, the half-life is the time needed for the level to fall by half in the phase considered. As a reminder, the bioavailability is the share of a dose that reaches the circulation, judged against a reference dose that is usually intravenous. The term inhibition denotes the change of the read-out against control, counted positive when it falls. What is called clearance is a measure of how efficiently the substance is removed, as volume per time. In general, Ki refers to the dissociation constant of the complex between target and ligand, obtained from inhibition or displacement. The term IC50 denotes the concentration that inhibits the measured activity by half.

Series [1] in a line: Plasma concentration in streptozotocin-induced ICR mouse type-2 diabetic model at 3 mg/kg, po measured at 8 hrs by HPLC/MS/MS analysis. Format: ADME, organism-based. Also noted: dose 3 mg/kg, route oral.
The test system of series [2] is Mus musculus. Briefly: Antidiabetic activity in diet-induced obese ICR mouse model assessed as decrease in fasting blood glucose level at 3 to 10 mg/kg, po measured at 4 hrs by glucometer. Type of series: functional, organism-based.
A short description of series [3]: Half life in monkey at 3 mg/kg, iv. Format: ADME, organism-based, Macaca mulatta. Also noted: dose 3 mg/kg, route intravenous. As to conditions: rhesus monkey, in vivo.
The nature of series [4]: Oral bioavailability in rat at 3 mg/kg. Type of series: ADME, organism-based. The note with it: in vivo.
Series [5] in a line: Plasma concentration in diet-induced obese ICR mouse model at 3 mg/kg, po measured at 24 hrs by HPLC/MS/MS analysis. Type of series: ADME, organism-based. Also noted: dose 3 mg/kg, route oral.
Series [6] has as its target T1, Type-1 angiotensin II receptor (Homo sapiens) (UniProt P30556).
T1 sequence (whole entry): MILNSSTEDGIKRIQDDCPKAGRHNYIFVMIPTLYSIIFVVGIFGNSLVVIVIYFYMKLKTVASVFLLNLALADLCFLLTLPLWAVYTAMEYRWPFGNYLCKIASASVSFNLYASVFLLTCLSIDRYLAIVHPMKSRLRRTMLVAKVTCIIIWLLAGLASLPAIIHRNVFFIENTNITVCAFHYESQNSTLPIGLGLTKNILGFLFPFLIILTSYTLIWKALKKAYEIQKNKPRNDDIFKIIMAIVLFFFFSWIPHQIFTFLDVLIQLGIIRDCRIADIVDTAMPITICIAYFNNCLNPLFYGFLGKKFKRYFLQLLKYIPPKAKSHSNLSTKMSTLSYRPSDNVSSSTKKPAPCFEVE
The experiment in a line: Binding affinity to AT1 receptor (unknown origin) at 10 uM by antagonist displacement assay relative to control.

Series [7] in a line: Plasma clearance in dog at 1 mg/kg, iv. Format: ADME, organism-based, Canis lupus familiaris. Also noted: dose 1 mg/kg, route intravenous.
For series [8], the target named is T2, Adenosine receptor A3 (Homo sapiens, UniProt P0DMS8).
T2 sequence (P0DMS8 whole entry): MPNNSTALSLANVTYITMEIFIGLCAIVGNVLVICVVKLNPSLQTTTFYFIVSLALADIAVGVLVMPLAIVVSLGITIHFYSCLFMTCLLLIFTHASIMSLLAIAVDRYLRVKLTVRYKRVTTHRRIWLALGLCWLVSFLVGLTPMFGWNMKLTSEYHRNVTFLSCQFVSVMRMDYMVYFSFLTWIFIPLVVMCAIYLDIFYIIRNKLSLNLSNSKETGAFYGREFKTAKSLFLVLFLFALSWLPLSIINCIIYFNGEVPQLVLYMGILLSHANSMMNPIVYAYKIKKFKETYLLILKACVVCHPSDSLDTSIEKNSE
The experiment in a line: Binding affinity to adenosine A3 receptor (unknown origin) by agonist displacement assay.

Series [9] deals with Glucagon receptor (Mus musculus, UniProt Q61606). Format: cell membranes, Liver, Membrane.
Description: Displacement of [125I]-glucagon from GCGR in mouse liver membranes after 60 mins by scintillation counting analysis
Series [10] relates to Mus musculus. Briefly: Antidiabetic activity in streptozotocin-induced ICR mouse type-2 diabetic model assessed as decrease in fasting blood glucose level at 30 mg/kg, po measured at 8 hrs by glucometer relative to vehicle-treated control. Type of series: functional, organism-based. Also noted: dose 30 mg/kg.
Series [11] concerns Mus musculus. The experiment in a line: Antidiabetic activity in diet-induced obese ICR mouse model assessed as inhibition of glucagon-induced glucose excursion at 10 to 30 mg/kg, po bid measured for 60 mins by glucometer. Format: functional, organism-based.

Calls of active or inactive are those of the source.

Sequence of Glucagon receptor (Q61606 whole entry): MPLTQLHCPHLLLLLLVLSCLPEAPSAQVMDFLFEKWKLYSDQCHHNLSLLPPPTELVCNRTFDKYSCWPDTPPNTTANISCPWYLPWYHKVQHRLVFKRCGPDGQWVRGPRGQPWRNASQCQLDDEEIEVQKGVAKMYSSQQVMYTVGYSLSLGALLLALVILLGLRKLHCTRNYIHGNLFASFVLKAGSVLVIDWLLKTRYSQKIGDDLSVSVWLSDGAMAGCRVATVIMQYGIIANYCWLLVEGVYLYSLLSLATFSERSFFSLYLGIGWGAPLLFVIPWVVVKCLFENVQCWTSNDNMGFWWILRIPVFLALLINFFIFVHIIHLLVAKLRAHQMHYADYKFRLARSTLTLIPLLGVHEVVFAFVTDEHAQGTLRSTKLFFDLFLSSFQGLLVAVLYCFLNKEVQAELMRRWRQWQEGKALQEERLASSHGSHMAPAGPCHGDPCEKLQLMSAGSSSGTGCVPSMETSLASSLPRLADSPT

Compound `CC(C)(C)CC[C@H](c1ccc(C(=O)NCc2nn[nH]n2)cc1)N1C(=O)C(c2cc(Cl)cc(Cl)c2)=N[C@]12CC[C@@H](C(C)(C)C)CC2` returned a concentration at 8 h in [1] of 1100 nM. In addition, the result in series [2] and in series [10] was Active. The compound also gave a half-life in series [3] of 7.9 h. In [4], this compound had a bioavailability of 15%. This compound displayed a concentration at 24 h in [5] of 430 nM. Moreover, the inhibition in series [6] was determined as 93%. This compound registered a clearance in series [7] of 0.3 mL/min/kg. The Ki in [8] was 2.43 µM. This compound also showed an IC50 in [9] of 0.13 µM. Moreover, the inhibition entry in [11] was “Active”.
